One assay has as its target human NaV 1.8 (Homo sapiens, UniProt Q9Y5Y9). Briefly: E-VIPR assay detecting and measuring NaV inhibition properties. It is filed as cell-based. Particulars: HEK cells expressing truncated human NaV 1.8; in the presence of human serum (compound numbers followed by *); read-out: IC50 in the E-VIPR Assay, performed in the presence of human serum. A digest of the protocol:
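HEK cells expressing truncated, fully active human NaV1.8, with KIR2.1 BacMam co-transduction, were loaded with CC2-DMPE/DiSBAC6(3) voltage-sensing dyes for 20 min at room temperature. Compounds were tested in 11-point 3-fold dilutions (300 nM top final), optionally with 25% human serum, under electrical stimulation with FRET read-out.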
human NaV 1.8, sequence (Q9Y5Y9 126-399 limits assumed): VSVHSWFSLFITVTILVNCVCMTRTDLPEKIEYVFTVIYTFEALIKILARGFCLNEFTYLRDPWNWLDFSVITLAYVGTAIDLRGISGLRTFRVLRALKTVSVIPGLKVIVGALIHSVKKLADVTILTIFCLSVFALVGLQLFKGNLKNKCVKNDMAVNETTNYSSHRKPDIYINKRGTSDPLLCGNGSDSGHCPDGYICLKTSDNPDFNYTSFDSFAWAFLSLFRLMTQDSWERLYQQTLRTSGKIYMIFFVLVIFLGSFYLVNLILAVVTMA
human NaV 1.8, sequence (Q9Y5Y9 660-890 limits assumed): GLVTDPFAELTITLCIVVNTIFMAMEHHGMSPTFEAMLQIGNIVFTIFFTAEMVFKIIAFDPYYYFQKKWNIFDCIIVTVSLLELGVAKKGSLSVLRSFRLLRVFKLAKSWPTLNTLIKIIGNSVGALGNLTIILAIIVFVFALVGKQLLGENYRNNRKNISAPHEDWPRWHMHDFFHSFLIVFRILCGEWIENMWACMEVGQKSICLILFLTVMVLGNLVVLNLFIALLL
human NaV 1.8, sequence (Q9Y5Y9 1148-1722 limits assumed): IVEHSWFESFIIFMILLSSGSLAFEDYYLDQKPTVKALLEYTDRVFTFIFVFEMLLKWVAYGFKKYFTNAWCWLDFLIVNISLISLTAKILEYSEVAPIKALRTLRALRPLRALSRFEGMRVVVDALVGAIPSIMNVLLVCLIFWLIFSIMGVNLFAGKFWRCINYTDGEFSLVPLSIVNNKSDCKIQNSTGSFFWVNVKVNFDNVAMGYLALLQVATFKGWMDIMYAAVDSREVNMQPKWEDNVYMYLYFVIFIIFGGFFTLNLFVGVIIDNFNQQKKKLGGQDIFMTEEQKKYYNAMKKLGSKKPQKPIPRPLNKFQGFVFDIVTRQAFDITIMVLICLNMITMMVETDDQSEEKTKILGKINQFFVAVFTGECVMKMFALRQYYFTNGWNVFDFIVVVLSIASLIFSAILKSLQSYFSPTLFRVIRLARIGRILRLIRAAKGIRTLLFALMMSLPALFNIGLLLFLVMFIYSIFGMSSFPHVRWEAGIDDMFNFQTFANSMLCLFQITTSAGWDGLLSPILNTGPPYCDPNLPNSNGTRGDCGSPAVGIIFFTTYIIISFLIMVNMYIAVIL
With `COc1c([C@H]2C[C@@](C)(C(F)(F)F)O[C@@H]2C(=O)Nc2ccnc([C@H](O)CO)c2)ccc(F)c1C` (single isomer, unassigned) [Compound 703], the IC50 is no less than 1000 nM.
As for `C[C@@H]1[C@H](c2ccc(F)c(F)c2OC(F)F)[C@@H](C(=O)Nc2ccnnc2)O[C@]1(C)C(F)(F)F` (stereo in doubt) [Compound 63, rel-(2S,3R,4R,5S)-3-(2-(difluoromethoxy)-3,4-difluorophenyl)-4,5-dimethyl-N-(pyridazin-4-yl)-5-(trifluoromethyl)tetrahydrofuran-2-carboxamide], the IC50 is no less than 1000 nM.
On the same count and under the same terms, the same measure for `COc1c(C2C(C(=O)Nc3ccn(C)c(=O)c3)OC(C)(C(F)(F)F)C2C)ccc(F)c1F` (single isomer, unassigned) [Compound 27, 3-(3,4-difluoro-2-methoxy-phenyl)-4,5-dimethyl-N-(1-methyl-2-oxo-4-pyridyl)-5-(trifluoromethyl)tetrahydrofuran-2-carboxamide]: no less than 1000 nM.

Staying with this assay, now noted: HEK cells expressing truncated human NaV 1.8; no human serum; read-out: IC50 in the E-VIPR Assay.
Turning to `CCOc1c([C@@H]2[C@@H](C(=O)Nc3ccnc(S(C)(=N)=O)c3)O[C@](C)(C(F)(F)F)[C@@H]2C)ccc(F)c1F` (single isomer, unassigned) [Compound 10], the IC50 was 100 to 1000 nM.
Turning to `COc1c([C@H]2[C@H](C(=O)Nc3cnc(CCO)n3C)O[C@@](C)(C(F)(F)F)[C@H]2C)ccc(F)c1F` [Compound 445, (2R,3S,4S,5R)-3-(3,4-difluoro-2-methoxyphenyl)-N-(2-(2-hydroxyethyl)-1-methyl-1H-imidazol-5-yl)-4,5-dimethyl-5-(trifluoromethyl)tetrahydrofuran-2-carboxamide], the IC50 is no less than 1000 nM.
Take `COc1c([C@H]2[C@H](C(=O)Nc3ccnc([C@H](O)[C@@H](C)O)c3)O[C@@](C)(C(F)(F)F)[C@H]2C)ccc(F)c1F` (single isomer, unassigned) [Compound 203, rel-(2R*,3S*,4S*,5R*)-3-(3,4-difluoro-2-methoxyphenyl)-N-(2-((1S,2R)-1,2-dihydroxypropyl)pyridin-4-yl)-4,5-dimethyl-5-(trifluoromethyl)tetrahydrofuran-2-carboxamide]: the IC50 was less than 10 nM.
Regarding `COc1c([C@@H]2[C@H](C)[C@H](C(C)C)O[C@H]2C(=O)Nc2cccnc2)ccc(F)c1F` [Compound 720, (2R,3S,4S,5S)-3-(3,4-difluoro-2-methoxyphenyl)-5-isopropyl-4-methyl-N-(pyridin-3-yl)tetrahydrofuran-2-carboxamide], the IC50 was in the range of 100 to 1000 nM.
`C[C@H]1[C@@H](c2ccc(F)c(F)c2OC(F)F)[C@H](C(=O)Nc2ccnc(N3CCN(C)CC3=O)c2)O[C@@]1(C)C(F)(F)F` [Compound 516, (2R,3S,4S,5R)-3-[2-(difluoromethoxy)-3,4-difluoro-phenyl]-4,5-dimethyl-N-[2-(4-methyl-2-oxo-piperazin-1-yl)-4-pyridyl]-5-(trifluoromethyl)tetrahydrofuran-2-carboxamide]: the IC50 was less than 10 nM.
For the molecule `Cc1nn(C(N)=O)cc1NC(=O)[C@@H]1O[C@@](C)(C(F)(F)F)[C@@H](C)[C@H]1c1ccc(F)c(F)c1OCCN1CCOCC1` [Compound 593, 4-((2R,3S,4S,5R)-3-(3,4-difluoro-2-(2-morpholinoethoxy)phenyl)-4,5-dimethyl-5-(trifluoromethyl)tetrahydrofuran-2-carboxamido)-3-methyl-1H-pyrazole-1-carboxamide], the IC50 was in the range of 10 to 100 nM.
With `COc1c([C@H]2[C@H](C(=O)Nc3ccnc(N4CC(N)CC4=O)c3)O[C@@](C)(C(F)(F)F)[C@H]2C)ccc(F)c1F` (single isomer, unassigned) [Compound 496, rel-(2R*,3S*,4S*,5R*)-N-(2-(4-amino-2-oxopyrrolidin-1-yl)pyridin-4-yl)-3-(3,4-difluoro-2-methoxyphenyl)-4,5-dimethyl-5-(trifluoromethyl)tetrahydrofuran-2-carboxamide], the IC50 fell in the range of 10 to 100 nM.
`CNC(=O)COc1c([C@H]2[C@H](C(=O)Nc3cn(C(F)F)nc3C)O[C@@](C)(C(F)(F)F)[C@H]2C)ccc(F)c1F` [Compound 607, (2R,3S,4S,5R)-3-(3,4-difluoro-2-(2-(methylamino)-2-oxoethoxy)phenyl)-N-(1-(difluoromethyl)-3-methyl-1H-pyrazol-4-yl)-4,5-dimethyl-5-(trifluoromethyl)tetrahydrofuran-2-carboxamide]: the IC50 lay within 10 to 100 nM.
Regarding `COc1c([C@H]2[C@H](C(=O)Nc3cnc4nncn4c3)O[C@@](C)(C(F)(F)F)[C@H]2C)ccc(F)c1F` [Compound 388, (2R,3S,4S,5R)-N-([1,2,4]triazolo[4,3-a]pyrimidin-6-yl)-3-(3,4-difluoro-2-methoxyphenyl)-4,5-dimethyl-5-(trifluoromethyl)tetrahydrofuran-2-carboxamide], the IC50 was in the range of 10 to 100 nM.
As for `CCOc1c([C@H]2[C@H](C(=O)Nc3ccnc(S(C)(=N)=O)c3)O[C@@](C)(C(F)(F)F)[C@H]2C)ccc(F)c1C` (relative stereo) [Compound 125, rel-(2R,3S,4S,5R)-3-(2-ethoxy-4-fluoro-3-methylphenyl)-4,5-dimethyl-N-(2-(S-methylsulfonimidoyl)pyridin-4-yl)-5-(trifluoromethyl)tetrahydrofuran-2-carboxamide], the IC50 was less than 10 nM.
For `COc1c([C@H]2[C@H](C(=O)Nc3ccn4c(C)ncc4c3)O[C@@](C)(C(F)(F)F)[C@H]2C)ccc(F)c1F` [Compound 315, (2R,3S,4S,5R)-3-(3,4-difluoro-2-methoxyphenyl)-4,5-dimethyl-N-(3-methylimidazo[1,5-a]pyridin-7-yl)-5-(trifluoromethyl)-tetrahydrofuran-2-carboxamide], the IC50 was less than 10 nM.
For `Cc1nocc1NC(=O)[C@@H]1O[C@@](C)(C(F)(F)F)[C@@H](C)[C@H]1c1ccc(F)c(F)c1OC[C@H](C)N1CC2(COC2)C1` [Compound 623, (2R,3S,4S,5R)-3-[3,4-difluoro-2-[(2S)-2-(2-oxa-6-azaspiro[3.3]heptan-6-yl)propoxy]phenyl]-4,5-dimethyl-N-(3-methylisoxazol-4-yl)-5-(trifluoromethyl)tetrahydrofuran-2-carboxamide], the IC50 was 10 to 100 nM.
Consider `C[C@H]1[C@@H](c2ccc(F)c(F)c2OCC2(F)COC2)[C@H](C(=O)Nc2ccnc(CO)c2)O[C@@]1(C)C(F)(F)F` [Compound 645, (2R,3S,4S,5R)-3-(3,4-difluoro-2-((3-fluorooxetan-3-yl)methoxy)phenyl)-N-(2-(hydroxymethyl)pyridin-4-yl)-4,5-dimethyl-5-(trifluoromethyl)tetrahydrofuran-2-carboxamide], for which the half-maximal inhibitory concentration (IC50) fell in the range of 10 to 100 nM.
With `C[C@H]1[C@@H](c2ccc(F)c(F)c2O[C@H]2C[C@@H](O)C2)[C@H](C(=O)Nc2ccc(C(N)=O)nc2)O[C@@]1(C)C(F)(F)F` [Compound 655, 5-((2R,3S,4S,5R)-3-(3,4-difluoro-2-((1S,3R)-3-hydroxycyclobutoxy)phenyl)-4,5-dimethyl-5-(trifluoromethyl)tetrahydrofuran-2-carboxamido)picolinamide], the half-inhibitory concentration (IC50) was 10 to 100 nM.
Still for that read-out and setting: the same measure for `COc1c([C@H]2[C@H](C(=O)Nc3cc(O[C@@H]4COC[C@@H]4O)ncn3)O[C@@](C)(C(F)(F)F)[C@H]2C)ccc(F)c1F` (relative stereo) [Compound 238, (2R*,3S*,4S*,5R*)-3-(3,4-difluoro-2-methoxyphenyl)-N-(6-((cis-4-hydroxytetrahydrofuran-3-yl)oxy)pyrimidin-4-yl)-4,5-dimethyl-5-(trifluoromethyl)tetrahydrofuran-2-carboxamide]: 10 to 100 nM; for `COc1c([C@H]2[C@H](C(=O)Nc3ccc(SC)nc3)O[C@@](C)(C(F)(F)F)[C@H]2C)ccc(F)c1F` [Compound 324, (2R,3S,4S,5R)-3-(3,4-difluoro-2-methoxyphenyl)-4,5-dimethyl-N-(6-(methylthio)pyridin-3-yl)-5-(trifluoromethyl)-tetrahydrofuran-2-carboxamide]: 10 to 100 nM; for `C[C@H]1[C@@H](c2ccc(F)c(F)c2OCCO)[C@H](C(=O)Nc2ccnnc2)O[C@@]1(C)C(F)(F)F` [Compound 576, (2R,3S,4S,5R)-3-[3,4-difluoro-2-(2-hydroxyethoxy)phenyl]-4,5-dimethyl-N-pyridazin-4-yl-5-(trifluoromethyl)tetrahydrofuran-2-carboxamide]: less than 10 nM.
On the same count and under the same terms, in the case of `COc1c(C2C(C(=O)Nc3cccnc3)OC(C)(C(F)(F)F)C2C)ccc(F)c1F` (single isomer, unassigned) [Compound 29, 3-(3,4-difluoro-2-methoxy-phenyl)-4,5-dimethyl-N-(3-pyridyl)-5-(trifluoromethyl)tetrahydrofuran-2-carboxamide] it was no less than 1000 nM; in that of `COc1c([C@H]2[C@H](C(=O)Nc3ccc(C[C@@H](O)CO)nc3)O[C@@](C)(C(F)(F)F)[C@H]2C)ccc(F)c1F` [Compound 334, (2R,3S,4S,5R)-3-(3,4-difluoro-2-methoxy-phenyl)-N-[6-[(2R)-2,3-dihydroxypropyl]-3-pyridyl]-4,5-dimethyl-5-(trifluoromethyl)tetrahydrofuran-2-carboxamide], 10 to 100 nM; in that of `Cc1conc1NC(=O)[C@@H]1O[C@@](C)(C(F)(F)F)[C@@H](C)[C@H]1c1ccc(F)c(F)c1OCCO` [Compound 545, (2R,3S,4S,5R)-3-(3,4-difluoro-2-(2-hydroxyethoxy)phenyl)-4,5-dimethyl-N-(4-methylisoxazol-3-yl)-5-(trifluoromethyl)tetrahydrofuran-2-carboxamide], 10 to 100 nM.
`COCc1cc(CNC(=O)[C@@H]2O[C@@](C)(C(F)(F)F)[C@@H](C)[C@H]2c2ccc(F)c(F)c2OC)n[nH]1` [Compound 288, (2R,3S,4S,5R)-3-(3,4-difluoro-2-methoxyphenyl)-N-((5-(methoxymethyl)-1H-pyrazol-3-yl)methyl)-4,5-dimethyl-5-(trifluoromethyl)tetrahydrofuran-2-carboxamide]: the IC50 was no less than 1000 nM.

In general, IC50 refers to the concentration at which inhibition is half-maximal.

Values taken from patent publication US20240368135A1 (VERTEX PHARMACEUTICALS INCORPORATED, priority 2021, published 2024).
